Source: US20250179047A1, “5-[7-(3,4-DIHYDRO-1H-ISOQUINOLINE-2-CARBONYL)-1,2,3,4 TETRAHYDROISOQUINOLIN-6-YL]-1H-PYRROLE-3-CARBOXAMIDE DERIVATIVES, PHARMACEUTICAL COMPOSITIONS CONTAINING THEM AND THEIR USES AS PRO-APOPTOTIC AGENTS” (LES LABORATOIRES SERVIER, priority 2022, published 2025)
Where two headings read alike, the source gives them in different places.

Tests used:
[1] = biological target: BCLXL WT (Homo sapiens (Human), UniProt Q07817); assay: TR-FRET competitive binding assay, BCLXL WT; details: for Ki: BCLXL WT, Ki determined from IC50, read-out: TR_FRET EKI BclxL; for TR_FRET EKI BCLxL/WT selectivty ratio: ratio Ki BCLxL / Ki BCL2 WT; for TR_FRET EKI BCLxL/WT selectivty: ratio of Ki BCLxL to BCL2 WT
Procedure, shortened: (§1)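 Competitive TR-FRET displacement of fluorescein-PUMA peptide (2 or 20 nM) from 0.5 nM terbium-labelled N-terminal Halo-fusion BCL2 (1-207, wild type or mutant) or BCLXL (2-196), expressed in E. coli. Buffer 50 mM Hepes pH 7.5, 150 mM NaCl, 5% DMSO; 2 h at 23°C. 520/495 nm ratio fitted over 11 points for IC50, converted to Ki.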

[2] = biological target: BCL2 G101V (Homo sapiens, UniProt P10415, G101V); assay: TR-FRET competitive binding assay, BCL2 G101V; details: BCL2 G101V; Ki determined from IC50; read-out: TR_FRET EKI_Bcl2 G101V
Procedure, shortened: as §1

[3] = system: BCL2 G101V; assay: TR-FRET competitive binding assay, BCL2 G101V; design: species or system human; details: for TR_FRET EKI G101V/WT selectivty ratio: ratio Ki BCL2 G101V / Ki BCL2 WT; for TR_FRET EKI G101V/WT selectivty: ratio of Ki BCL2 G101V to BCL2 WT
Procedure, shortened: as §1

[4] = biological target: BCL2 D103Y (Homo sapiens, UniProt P10415, D103Y); assay: TR-FRET competitive binding assay, BCL2 D103Y; details: Ki determined from IC50, read-out: TR_FRET EKI_Bcl2 D103Y
Procedure, shortened: as §1

[5] = system: KMS-12-PE Bcl-2 WT; assay: In vitro cytotoxicity CellTiter-Glo 48 h, KMS-12-PE Bcl-2 WT; assay type: cell-based; details: Homo sapiens, KMS-12-PE, C50 = concentration needed to reach 50% of the cellular viability
Procedure, shortened: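 CTG luminescence read-out; C50 = concentration reaching 50% cellular viability. Cells: KMS-12-PE expressing Bcl-2 WT or G101V (lentiviral, TagRFP-sorted). 11-pt curve, 48 h, 37 °C/5% CO2.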

[6] = biological target: BCL2 WT (Homo sapiens (Human), UniProt P10415); assay: TR-FRET competitive binding assay, BCL2 WT
Procedure, shortened: as §1

[7] = Ki determined from IC50, read-out: TR_FRET EKI_Bcl2 WT
[8] = Ki determined from IC50, read-out: TR_FRET EKI_Bcl2

BCLXL WT, sequence (Q07817 other isoform, or with tags, fused parts or gaps): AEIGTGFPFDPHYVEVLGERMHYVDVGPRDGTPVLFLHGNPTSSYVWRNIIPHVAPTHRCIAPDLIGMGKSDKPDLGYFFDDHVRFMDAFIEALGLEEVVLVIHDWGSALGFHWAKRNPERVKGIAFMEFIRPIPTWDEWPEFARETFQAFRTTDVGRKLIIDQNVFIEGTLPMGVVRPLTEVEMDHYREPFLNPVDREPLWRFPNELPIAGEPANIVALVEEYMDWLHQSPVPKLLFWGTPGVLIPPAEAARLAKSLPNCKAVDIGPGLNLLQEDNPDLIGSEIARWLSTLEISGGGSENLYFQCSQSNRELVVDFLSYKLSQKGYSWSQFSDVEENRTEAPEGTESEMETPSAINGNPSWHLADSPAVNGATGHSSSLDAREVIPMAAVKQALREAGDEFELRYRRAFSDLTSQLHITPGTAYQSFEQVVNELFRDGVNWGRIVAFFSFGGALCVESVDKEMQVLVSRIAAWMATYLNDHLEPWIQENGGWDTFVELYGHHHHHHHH

Row | Structure (SMILES) | Ki [1] [nM] | TR_FRET EKI BCLxL/WT selectivty ratio [1] | Ki [2] [nM] | TR_FRET EKI G101V/WT selectivty ratio [3] | Ki [4] [nM] | Ki [6, 7] [nM] | TR_FRET EKI BCLxL/WT selectivty [1] | TR_FRET EKI G101V/WT selectivty [3] | Ki [6, 8] [nM] | IC50 [5] [µM]
1 | Cc1c(C(=O)N(c2ccccc2)c2cccc(C#N)c2)cc(-c2cc3c(cc2C(=O)N2Cc4ccccc4C[C@H]2C)CN(C(=O)Cc2ccc(OCCN4CCOCC4)cc2)CC3)n1C [Example 218, N-(3-cyanophenyl)-1,2-dimethyl-5-[7-[(3R)-3-methyl-3,4-dihydro-1H-isoquinoline-2-carbonyl]-2-[2-[4-(2-morpholinoethoxy)phenyl]acetyl]-3,4-dihydro-1H-isoquinolin-6-yl]-N-phenyl-pyrrole-3-carboxamide] | 13.8 | 418.1 | 1.5 | 45.3 | 0.08 | 0.03 |  |  |  | 0.0142
2 | COC[C@@H]1Cc2ccccc2CN1C(=O)c1cc2c(cc1-c1cc(C(=O)N(c3ccccc3)c3cnn(C(F)F)c3)c(C)n1C)CCN(C(=O)Cc1ccc(OCCN3CCOCC3)cc1)C2 [Example 205, N-[1-(difluoromethyl)pyrazol-4-yl]-5-[7-[(3S)-3-(methoxymethyl)-3,4-dihydro-1H-isoquinoline-2-carbonyl]-2-[2-[4-(2-morpholinoethoxy)phenyl]acetyl]-3,4-dihydro-1H-isoquinolin-6-yl]-1,2-dimethyl-N-phenyl-pyrrole-3-carboxamide] | 20 | 270.3 | 7.4 | 100.3 | 0.19 | 0.07 |  |  |  | 0.0126
3 | Cc1c(C(=O)N(c2ccccc2)c2cnn(C)c2)cc(-c2cc3c(cc2C(=O)N2Cc4ccccc4C[C@H]2C)CN(C(=O)Cc2ccc(OCCN(C)C)cc2F)CC3)n1C [Example 239] | 4.3 |  | 5.25 |  | 0.132 |  | 65.2 | 79.5 | 0.066 | 0.0128
4 | COc1ccc(N(C(=O)c2cc(-c3cc4c(cc3C(=O)N3Cc5ccccc5C[C@H]3C)CN(C(=O)Cc3ccc(OCCN5CCOCC5)cc3)CC4)n(C)c2C)c2ccccc2)cc1C#N [Example 182, N-(3-cyano-4-methoxy-phenyl)-1,2-dimethyl-5-[7-[(3R)-3-methyl-3,4-dihydro-1H-isoquinoline-2-carbonyl]-2-[2-[4-(2-morpholinoethoxy)phenyl]acetyl]-3,4-dihydro-1H-isoquinolin-6-yl]-N-phenyl-pyrrole-3-carboxamide] | 11.8 | 107.1 | 1.5 | 13.3 | 0.3 | 0.11 |  |  |  | 0.0097
5 | Cc1c(C(=O)N(c2ccccc2)c2cnn(C)c2)cc(-c2cc3c(cc2C(=O)N2Cc4ccccc4C[C@H]2C)CN(C(=O)Cc2ccc(OCCC4CCN(C)CC4)cc2)CC3)n1C [Example 237] | 1.7 |  | 0.52 |  | 0.057 |  | 53.1 | 16.3 | 0.032 | 0.007
6 | Cc1c(C(=O)N(c2ccccc2)c2cnn(C)c2)cc(-c2cc3c(cc2C(=O)N2Cc4ccccc4C[C@H]2C)CN(C(=O)Cc2cccc(C4CCN(C)CC4)c2)CC3)n1C [Example 216, 1,2-dimethyl-5-[7-[(3R)-3-methyl-3,4-dihydro-1H-isoquinoline-2-carbonyl]-2-[2-[3-(1-methyl-4-piperidyl)phenyl]acetyl]-3,4-dihydro-1H-isoquinolin-6-yl]-N-(1-methylpyrazol-4-yl)-N-phenyl-pyrrole-3-carboxamide] | 2.6 | 50.1 | 6.4 | 125.5 | 0.33 | 0.05 |  |  |  | 0.0449

The remaining compounds from weak to strong by Ki [1], led by results:

Row | Ki [1] [nM] | TR_FRET EKI BCLxL/WT selectivty ratio [1] | Ki [2] [nM] | TR_FRET EKI G101V/WT selectivty ratio [3] | Ki [4] [nM] | Ki [6, 7] [nM] | TR_FRET EKI BCLxL/WT selectivty [1] | TR_FRET EKI G101V/WT selectivty [3] | Ki [6, 8] [nM] | Structure (SMILES) | IC50 [5] [µM]
7 | 12.3 | 411.3 | 2 | 66.2 | 0.09 | 0.03 |  |  |  | Cc1c(C(=O)N(c2ccccc2)c2cnn(C)c2)cc(-c2cc3c(cc2C(=O)N2Cc4ccccc4C[C@H]2C)CN(C(=O)Cc2ccc(OCCN4CCOCC4)cc2)CC3)n1C [Example 184, 1,2-dimethyl-5-[7-[(3R)-3-methyl-3,4-dihydro-1H-isoquinoline-2-carbonyl]-2-[2-[4-(2-morpholinoethoxy)phenyl]acetyl]-3,4-dihydro-1H-isoquinolin-6-yl]-N-(1-methylpyrazol-4-yl)-N-phenyl-pyrrole-3-carboxamide] | 0.0061
8 | 9.6 | 301.1 | 2.7 | 83.2 | 0.09 | 0.03 |  |  |  | COCCn1cc(N(C(=O)c2cc(-c3cc4c(cc3C(=O)N3Cc5ccccc5C[C@H]3C)CN(C(=O)Cc3ccc(OCCN5CCOCC5)cc3)CC4)n(C)c2C)c2ccccc2)cn1 [Example 196, N-[1-(2-methoxyethyl)pyrazol-4-yl]-1,2-dimethyl-5-[7-[(3R)-3-methyl-3,4-dihydro-1H-isoquinoline-2-carbonyl]-2-[2-[4-(2-morpholinoethoxy)phenyl]acetyl]-3,4-dihydro-1H-isoquinolin-6-yl]-N-phenyl-pyrrole-3-carboxamide] | 0.0089
9 | 8.6 | 168.6 | 0.7 | 13.3 | 0.12 | 0.05 |  |  |  | Cc1c(C(=O)N(c2ccccc2)c2cc(C#N)n(C(F)F)c2C)cc(-c2cc3c(cc2C(=O)N2Cc4ccccc4C[C@H]2C)CN(C(=O)Cc2ccc(OCCN4CCOCC4)cc2)CC3)n1C [Example 214, N-[5-cyano-1-(difluoromethyl)-2-methyl-pyrrol-3-yl]-1,2-dimethyl-5-[7-[(3R)-3-methyl-3,4-dihydro-1H-isoquinoline-2-carbonyl]-2-[2-[4-(2-morpholinoethoxy)phenyl]acetyl]-3,4-dihydro-1H-isoquinolin-6-yl]-N-phenyl-pyrrole-3-carboxamide] | 0.0035
10 | 8.5 | 404.3 | 0.5 | 23.3 | 0.06 | 0.02 |  |  |  | Cc1ccc(N(C(=O)c2cc(-c3cc4c(cc3C(=O)N3Cc5ccccc5C[C@H]3C)CN(C(=O)Cc3ccc(OCCN5CCOCC5)cc3F)CC4)n(C)c2C)c2ccccc2)cc1C#N [Example 203, N-(3-cyano-4-methyl-phenyl)-5-[2-[2-[2-fluoro-4-(2-morpholinoethoxy)phenyl]acetyl]-7-[(3R)-3-methyl-3,4-dihydro-1H-isoquinoline-2-carbonyl]-3,4-dihydro-1H-isoquinolin-6-yl]-1,2-dimethyl-N-phenyl-pyrrole-3-carboxamide] | 0.0091
11 | 5.9 | 92.8 | 1.5 | 23.4 | 0.13 | 0.06 |  |  |  | Cc1c(N(C(=O)c2cc(-c3cc4c(cc3C(=O)N3Cc5ccccc5C[C@H]3C)CN(C(=O)Cc3ccc(OCCN5CCOCC5)cc3)CC4)n(C)c2C)c2ccc(F)cc2)cc(C#N)n1C [Example 185, N-(5-cyano-1,2-dimethyl-pyrrol-3-yl)-N-(4-fluorophenyl)-1,2-dimethyl-5-[7-[(3R)-3-methyl-3,4-dihydro-1H-isoquinoline-2-carbonyl]-2-[2-[4-(2-morpholinoethoxy)phenyl]acetyl]-3,4-dihydro-1H-isoquinolin-6-yl]pyrrole-3-carboxamide] | 0.0051
12 | 3.3 | 115.0 | 1 | 35.7 | 0.08 | 0.03 |  |  |  | Cc1c(C(=O)N(c2ccccc2)c2cnc3c(cnn3C)c2)cc(-c2cc3c(cc2C(=O)N2Cc4ccccc4C[C@H]2C)CN(C(=O)Cc2ccc(OCCN4CCOCC4)cc2F)CC3)n1C [Example 194, 5-[2-[2-[2-fluoro-4-(2-morpholinoethoxy)phenyl]acetyl]-7-[(3R)-3-methyl-3,4-dihydro-1H-isoquinoline-2-carbonyl]-3,4-dihydro-1H-isoquinolin-6-yl]-1,2-dimethyl-N-(1-methylpyrazolo[3,4-b]pyridin-5-yl)-N-phenyl-pyrrole-3-carboxamide] | 0.0026
13 | 3 | 150.0 | 1.4 | 68.8 | 0.04 | 0.02 |  |  |  | Cc1c(C(=O)N(c2ccccc2)c2cnn(CCN(C)C)c2)cc(-c2cc3c(cc2C(=O)N2Cc4ccccc4C[C@H]2C)CN(C(=O)Cc2ccc(OCCC4CCOCC4)cc2)CC3)n1C [Example 207, N-[l-[2-(dimethylamino)ethyl]pyrazol-4-yl]-1,2-dimethyl-5-[7-[(3R)-3-methyl-3,4-dihydro-1H-isoquinoline-2-carbonyl]-2-[2-[4-(2-tetrahydropyran-4-ylethoxy)phenyl]acetyl]-3,4-dihydro-1H-isoquinolin-6-yl]-N-phenyl-pyrrole-3-carboxamide] | 0.023
